Measured values published in patent US8058243B2, “Method for treating a brain cancer with ifenprodil” (HSC Research and Development Limited Partnership, priority 2006, dated 2011).
Counter-ions that a name gives are not always drawn. Like-named read-outs stand apart in the source and are kept apart here.

System: murine neural precursor cells (neurosphere cultures)
Assay: HTS of LOPAC library against secondary neurosphere cultures, MTT proliferation assay at 3 μM, day 7 (z score, P value)
Assay type: cell-based, mouse
[1] = LOPAC primary screen, neurosphere MTT proliferation, 3 μM, day 7
[2] = yes/no: significantly inhibited neurosphere proliferation in primary screen
[3] = LOPAC library screen at 3 μM, secondary neurosphere cultures, MTT
[4] = yes/no: significantly inhibited neurosphere proliferation (P<0.01) in primary screen
[5] = LOPAC screen, neurosphere MTT proliferation, 3 μM, day 7
[6] = yes/no: significantly inhibited neurosphere proliferation (P<0.01) in the primary screen
[7] = primary LOPAC screen, 3 μM, MTT, neurosphere proliferation
[8] = yes/no: significantly inhibited neurosphere proliferation in the primary screen
[9] = LOPAC library screen, 3 μM, MTT, neurosphere cultures
[10] = yes = significantly inhibited neurosphere proliferation (P<0.01) in the primary screen

CCN(CC)CC.Nc1ncnc2c1ncn2C1OC2COP(O)(=S)O[C@@H]2[C@@H]1O (some centres unmarked) [Rp-cAMPS triethylamine]
Activity: no
Z Score: 1.186
Z score: 1.186

O=c1c2ccccc2nc2n1CCc1c-2[nH]c2ccccc12 [Rutaecarpine]
Z Score (168 h, 3 µM): 0.6857
Z score (168 h, 3 µM): 0.686

N.N.N.N.N.N.N.N.N.N.N.N.N.N.[Cl-].[Cl-].[Cl-].[Cl-].[Cl-].[Cl-].[O-2].[O-2].[Ru+3].[Ru+3].[Ru+4] [Ruthenium red]
Z Score: −0.07388
Z score [1]: −0.074
Activity [2]: no

CC(C)Cc1ccc([C@H](C)C(=O)O)cc1 [S(+)-Ibuprofen]
Z Score [3]: −0.7335
Z score [1]: −0.733
Activity [4]: no

CC(C)NC[C@@H](O)c1ccc(O)c(O)c1.O=C(O)C(O)C(O)C(=O)O [S(+)-Isoproterenol (+)-bitartrate]
Z Score: −0.2963

CC(C)NC[C@@H](O)c1ccc(O)c(O)c1.O=C(O)C(O)C(O)C(=O)O [S(+)-Isoproterenol(+)-bitartrate]
Z score [1]: −0.296
Activity [4]: no

CCCN1CCO[C@@H]2c3cc(O)ccc3OC[C@H]21.Cl [S(+)-PD 128,907 hydrochloride]
Z Score: −1.174
Z score [1]: −1.174
Activity [2]: no

CCCN1CCC[C@@H](c2cccc(O)c2)C1.Cl [S(−)-3PPP hydrochloride]
Z Score: −0.4205
Z score [1]: −0.421
Activity [2]: no

CCCN1CCC[C@@H](c2cccc(C#N)c2)C1.Cl [S(−)-DS 121 hydrochloride]
Z Score: −0.0998
Z score [5]: −0.100
Activity [4]: no

CCN1CCC[C@H]1CNC(=O)c1c(OC)ccc(I)c1O [S(−)-IBZM]
Z Score: −0.1166
Z score [1]: −0.117
Activity [6]: no

CC(C)NCC(O)COc1cccc2[nH]ccc12 (stereo not drawn) [S(−)-Pindolol]
Z score [1]: −1.122
Z score [5]: −0.965
Activity [4]: no
Activity [2]: no

CCCN(CCC)[C@H]1CCc2c(F)ccc(O)c2C1.Cl [S(−)-UH-301 hydrochloride]
Z Score: −2.706
Z score [1]: −2.706
Activity [6]: yes

N[C@@H](Cn1cc(I)c(=O)[nH]c1=O)C(=O)O [S-5-Iodowillardiine]
Z Score: −0.3551
Z score [7]: −0.355
Activity [8]: no

Nc1nc(SCc2ccc([N+](=O)[O-])cc2)c2ncn([C@@H]3O[C@H](CO)[C@@H](O)[C@H]3O)c2n1 [S-(4-Nitrobenzyl)-6-thioguanosine]
Z Score [9]: 0.1017
Z score [1]: 0.102
Activity [2]: no

O=[N+]([O-])c1ccc(CSc2ncnc3c2ncn3[C@@H]2O[C@H](CO)[C@@H](O)[C@H]2O)cc1 [S-(4-Nitrobenzyl)-6-thioinosine]
Z Score (168 h, 3 µM): −0.4271
Z score (168 h, 3 µM): −0.427
Activity [10]: no

CNCC[C@H](Oc1ccc(C(F)(F)F)cc1)c1ccccc1.Cl [S-(+)-Fluoxetine hydrochloride]
Z Score [3]: −0.8088
Z score [1]: −0.809
Activity [4]: no

[N-]=[N+]=Nc1ccc(C(=O)CSC[C@H](NC(=O)CC[C@H](N)C(=O)O)C(=O)NCC(=O)O)cc1 [S-(p-Azidophenacyl)glutathione]
Z Score [9]: −0.00276
Z score [7]: −0.003
Activity [8]: no

CCc1cc(Cl)c(OC)c(C(=O)NC[C@@H]2CCCN2CC)c1O.Cl [S-(−)-Eticlopride hydrohloride]
Z score [1]: −5.158
Activity [6]: yes

Br.CCSC(=N)N [S-Ethylisothiourea hydrobromide]
Z Score (168 h, 3 µM): −1.599
Z score (168 h, 3 µM): −1.599
Activity [4]: no

CC(=O)O.CSC(=N)NCCC[C@H](N)C(=O)O [S-Methyl-L-thiocitrulline acetate]
Z Score: −1.751
Z score [1]: −1.751
Activity [10]: no

CSC(=N)N.CSC(=N)N.O=S(=O)(O)O [S-Methylisothiourea hemisulfate]
Activity: no
Z Score: −0.2111
Z score: −0.211

N[C@@H](CCC(=O)N[C@@H](CSN=O)C(=O)NCC(=O)O)C(=O)O [S-Nitrosoglutathione]
Z Score (168 h, 3 µM): 0.6978
Z score (168 h, 3 µM): 0.698
Activity [10]: no

Cl.Cn1ccc2cc(NC(=O)Nc3cccnc3)ccc21 [SB 200646 hydrochloride]
Z Score: 2.437
Z score [7]: 2.437
Activity [8]: no

O=C(OCCN1CCCCC1)c1c[nH]c2ccccc12 [SB 203186]
Z Score: 0.9365
Z score [5]: 0.937
Activity [4]: no

CCCCN1CCC(COC(=O)c2cc(Cl)c(N)c3c2OCCO3)CC1.Cl [SB 204070 hydrochloride]
Z Score: −5.886
Z score [1]: −5.886
Activity [6]: yes

Cc1cc(NC(=O)Nc2ccc3c(ccn3C)c2)sn1 [SB 204741]
Z Score: −2.299
Z score [5]: −2.299
Activity [4]: no

CC#CCOC(=O)c1c(C)nc2sc3c(c2c1N)CCC(O)C3 (centres unmarked) [SB 205384]
Z Score: 0.7968
Z score [1]: 0.797
Activity [2]: no

Cn1ccc2cc3c(cc21)CCN3C(=O)Nc1cccnc1 [SB 206553 hydrochloride]
Z Score: −1.365
Z score [7]: −1.365
Activity [8]: no

Cn1cc(C2=C(c3ccc(Cl)cc3Cl)C(=O)NC2=O)c2ccccc21 [SB 216763]
Z Score: −2.542
Z score [1]: −2.542
Activity [10]: yes

COC(=O)[C@H](NC(=O)c1cc(-c2ccccc2)nc2ccccc12)c1ccccc1 [SB 218795]
Z Score: 1.359
Z score [1]: 1.359
Activity [4]: no

CC[C@H](NC(=O)c1c(C)c(-c2ccccc2)nc2ccccc12)c1ccccc1 [SB 222200]
Z Score: −1.695
Z score [7]: −1.695
Activity [8]: no

Cc1nc(-c2ccc(-c3ccc(C(=O)N4CCc5cc6c(cc54)C4(CCN(C)CC4)CO6)cc3)c(C)c2)no1.Cl [SB 224289 hydrochloride]
Z Score (LOPAC library screen, 3 μM, MTT, secondary neurosphere cultures, day 7): −4.786
Z score [1]: −4.786
Activity [6]: yes

COc1cc2c(cc1C(F)(F)F)N(C(=O)Nc1cc(F)cc(-c3cccnc3)c1)CC2 [SB 228357]
Z Score: 0.03426
Z score [1]: 0.034
Activity [4]: no

CC1CCN(CC[C@H]2CCCN2S(=O)(=O)c2cccc(O)c2)CC1.Cl [SB 269970 hydrochloride]
Z Score: −1.1
Z score [1]: −1.100
Activity [2]: no

O=C1NC(=O)C(c2ccccc2[N+](=O)[O-])=C1Nc1ccc(O)c(Cl)c1 [SB 415286]
Z Score: −2.87
Z score [1]: −2.870

COc1cccc(NC(=O)/C=C/c2ccc(Cl)cc2)c1 [SB-366791]
Z Score: −1.419
Z score [1]: −1.419
Activity [2]: no

CC(=O)NNC(=O)N1Cc2ccccc2Oc2ccc(Cl)cc21 [SC 19220]
Z Score: −1.64
Z score [1]: −1.640
Activity [2]: no

COc1ccc(-n2nc(C(F)(F)F)cc2-c2ccc(Cl)cc2)cc1 [SC-560]
Z Score: 1.113
Z score [1]: 1.113

Cc1nc2c(OCc3ccccc3)cccn2c1CC#N [SCH-28080]
Z Score: 2.107
Z score [5]: 2.107
Activity [4]: no

Br.CN=c1nc(-c2ccccc2)n(-c2ccccc2)s1 [SCH-202676 hydrobromide]
Z Score: 0.3599
Z score [1]: 0.360
Activity [2]: no

CCN(CC)CCOC(=O)c1cc(Cl)c(N)cc1OC.Cl [SDZ-205,557 hydrochloride]
Z Score: −2.681
Z score [1]: −2.681
Activity [6]: yes

Cc1ccc(O)c(N=Nc2ccccc2)n1 [SIB 1757]
Z Score: −1.752
Z score [1]: −1.752
Activity [2]: no

Cc1cccc(/C=C/c2ccccc2)n1 [SIB 1893]
Z Score: −0.848
Z score [1]: −0.848
Activity [2]: no

Br.CN1CCc2cc(O)c(O)cc2C(c2ccccc2)C1 (centres unmarked) [SKF 75670 hydrobromide]
Z Score: −0.1421
Z score [1]: −0.142
Activity [2]: no

Br.Cc1cccc(C2CN(C)CCc3c2cc(O)c(O)c3Cl)c1 (centres unmarked) [SKF 83959 hydrobromide]
Z Score: −1.357
Z score [1]: −1.357
Activity [2]: no

CN1CCc2cccc(Cl)c2CC1 [SKF 86466]
Z Score: 0.8822
Z score [1]: 0.882
Activity [10]: no

Br.Oc1ccc(C2CNCc3sccc32)cc1O (centres unmarked) [SKF 89626]
Activity: no
Z Score: −0.04369
Z score [1]: −0.044

Cl.O=C(O)C1CCCN(CCC=C(c2ccccc2)c2ccccc2)C1 (centres unmarked) [SKF 89976A hydrochloride]
Z Score: −0.2328
Z score [1]: −0.233
Activity [2]: no

CN(C)CCCCSC(=N)N.Cl.Cl [SKF 91488 dihydrochloride]
Z Score: −0.766
Z score [1]: −0.766
Activity [2]: no

CN/C(=N\c1ccc(C2=NNC(=O)CC2C)cc1)NC#N (centres unmarked) [SKF 94836]
Z Score: 0.2458
Z score [1]: 0.246
Activity [2]: no

O=C(O)/C=C\C(=O)O.O=C(O)/C=C\C(=O)O.c1cc(CN2CCCCC2)cc(OCCCNc2nc3ccccc3s2)c1 [SKF 95282 dimaleate]
Z score [7]: 0.424
Activity [8]: no

COc1ccc(CCCOC(Cn2ccnc2)c2ccc(OC)cc2)cc1 (centres unmarked) [SKF 96365]
Z Score: −4.497
Z score [1]: −4.497
Activity [10]: yes

CP(=O)(O)CCCN.Cl [SKF 97541 hydrochloride]
Z Score: −0.7355
Z score [7]: −0.736
Activity [8]: no

CCCC(C(=O)OCCN(CC)CC)(c1ccccc1)c1ccccc1.Cl [SKF-525A hydrochloride]
Z Score: −1.928
Z score [1]: −1.928
Activity [6]: no
